The values below come from ChEMBL document CHEMBL1201862, “PubChem BioAssay data set” (2004).

Test systems include OVCAR-5; OVCAR-8; CCRF-CEM; TK-10; SK-MEL-5; A498; UACC-257; EKVX; RXF 393; 786-0; HCT-15; KM-20L2; OVCAR-3; UACC-62; NCI-H522; COLO 205; LOX IMVI; IGROV-1; HOP-92; BT-549.
Common to all, as to test: DTP human tumour cell line panel, 48 h

The structures appear in SMILES notation.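 Step 1: Grow cells in 96-well plates. Step 2: Expose to compound for 48 hours at 5 concentrations. Step 3: Interpolate endpoints linearly; if unreached, use highest concentration. GI50 marks 50% less growth.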 Calls of active or inactive are those of the source. Cut-off read from the data, not from the text of the source: active = GI50 up to about 1.1 µM and inactive = higher. A value given as a limit tells only on which side of the number the result lay.

Regarding `C[Si](C)(C)/C=C/CN1C(=O)CCC1O` (configuration not stated), the GI50 with OVCAR-5, in the experiment on OVCAR-8, with CCRF-CEM, with TK-10, in the experiment on SK-MEL-5 and with A498 was > 100 µM (inactive) each time. The GI50 was > 100 µM (inactive) with UACC-257; > 100 µM (inactive) in the experiment with EKVX; > 100 µM (inactive) in the experiment with RXF 393; > 100 µM (inactive) with 786-0; above 100 µM in the experiment with HCT-15; > 100 µM (inactive) in the experiment on KM-20L2. The GI50 in the experiment with OVCAR-3, in the experiment with UACC-62, with NCI-H522, in the experiment with COLO 205, in the experiment on LOX IMVI and in the experiment with IGROV-1 was > 100 µM (inactive) each time. Moreover, in the experiment with HOP-92, the GI50 was > 100 µM (inactive).

Turning to `Nn1c(S)nnc1N/N=C1/C(=O)Nc2c(Cl)cc(Cl)cc21`, the GI50 in the experiment on OVCAR-5 is > 100 µM (inactive); in the experiment on OVCAR-8 it was > 100 µM (inactive); in the experiment with CCRF-CEM it was 37.1 µM (inactive); in the experiment on TK-10, > 100 µM (inactive); with SK-MEL-5 it was > 100 µM (inactive); in the experiment on A498, 65.5 µM (inactive). For the same compound, the GI50 with UACC-257 is > 100 µM (inactive); in the experiment with EKVX, > 100 µM (inactive); with RXF 393 it was 17.9 µM (inactive); with 786-0, 97.3 µM (inactive); in the experiment with HCT-15, above 100 µM; with KM-20L2, 81.8 µM (inactive). Moreover, the GI50 with OVCAR-3 is > 100 µM (inactive); in the experiment with UACC-62, > 100 µM (inactive); with NCI-H522, 95.1 µM (inactive); with COLO 205 it was > 100 µM (inactive); with LOX IMVI, 48.5 µM (inactive); in the experiment with IGROV-1, 92.9 µM (inactive). In addition, the GI50 in the experiment with HOP-92 is 73.1 µM (inactive).

Regarding `O=c1[nH]c(=O)n(C2CC(O)C(CS)O2)cc1F` (configuration not stated), the GI50 with OVCAR-5 was > 61.9 µM (inactive); in the experiment on BT-549, > 100 µM (inactive); in the experiment with OVCAR-8 it was 14.8 µM (inactive); in the experiment with CCRF-CEM it was 30.5 µM (inactive); in the experiment on TK-10, 83.2 µM (inactive); with SK-MEL-5, 70.1 µM (inactive). In addition, the GI50 in the experiment with A498 was 26.6 µM (inactive); with UACC-257, > 100 µM (inactive); in the experiment on EKVX it was > 100 µM (inactive); with RXF 393, > 100 µM (inactive); with 786-0, 21.7 µM (inactive); with HCT-15 it was 74.5 µM. Further, the GI50 in the experiment on KM-20L2 was 78.9 µM (inactive); in the experiment with OVCAR-3, > 92.3 µM (inactive); in the experiment with UACC-62, 65.2 µM (inactive); with NCI-H522 it was > 87.1 µM (inactive); with COLO 205, 52.5 µM (inactive); in the experiment with LOX IMVI it was 61.9 µM (inactive). Also, the GI50 with IGROV-1 is > 100 µM (inactive); with HOP-92, 9.79 µM (inactive).

For `CCOC(=O)C(CC(C)C)NC(=O)C(N)Cc1ccc(N(CCCl)CCCl)cc1` (configuration not stated), the GI50 with OVCAR-5 was 11.8 µM (inactive); in the experiment on BT-549, 15.8 µM (inactive); with OVCAR-8, 4.91 µM (inactive); with CCRF-CEM, 0.104 µM (active); in the experiment on TK-10, 9.71 µM (inactive); with SK-MEL-5 it was 5.62 µM (inactive). The GI50 in the experiment on A498 was 13.9 µM (inactive); in the experiment with UACC-257 it was 10.3 µM (inactive); with EKVX, 17.9 µM (inactive); with RXF 393, 2.01 µM (inactive); in the experiment with 786-0, 1.69 µM (inactive); in the experiment with HCT-15 it was 2.38 µM. The GI50 with KM-20L2 is 3.33 µM (inactive); in the experiment on OVCAR-3, 1.95 µM (inactive); in the experiment with UACC-62, 1.35 µM (inactive); in the experiment on NCI-H522, 2.66 µM (inactive); in the experiment with COLO 205, 4.22 µM (inactive); with IGROV-1 it was 13.7 µM (inactive). Besides, in the experiment on HOP-92, the GI50 was 3.18 µM (inactive).

`CCSc1nc(COC(=O)NC)c(COC(=O)NC)n1C`: the GI50 in the experiment on OVCAR-5 was > 100 µM (inactive); with BT-549, > 100 µM (inactive); in the experiment with OVCAR-8 it was > 100 µM (inactive); in the experiment with CCRF-CEM it was 54 µM (inactive); in the experiment with TK-10 it was > 100 µM (inactive); in the experiment with SK-MEL-5, > 100 µM (inactive). For the same compound, the GI50 with A498 was > 67.9 µM (inactive); in the experiment on UACC-257 it was > 100 µM (inactive); in the experiment on EKVX, > 100 µM (inactive); with RXF 393 it was 42.8 µM (inactive); with 786-0, 99.5 µM (inactive); in the experiment on HCT-15, above 100 µM. Also, the GI50 with KM-20L2 is > 100 µM (inactive); with OVCAR-3 it was > 100 µM (inactive); with UACC-62, 34.1 µM (inactive); in the experiment on NCI-H522, 40.6 µM (inactive); with COLO 205, > 74.3 µM (inactive); with LOX IMVI, > 97.1 µM (inactive). Besides, the GI50 is > 79.8 µM (inactive) in the experiment with IGROV-1 and > 80.5 µM (inactive) in the experiment on HOP-92.
